Literature values, collected in patent US20040067963A1, “Methods to prevent or ameliorate trauma-related psychological disorders” (University of Florida, priority 2002, published 2004).

Assays:
[1] = system: patients with combat-related PTSD; settings: 301 patients, by week 6 of treatment, normal to upper range of usual antidepressant doses
[2] = system: patients with HRV parameters indicating autonomic dysregulation characteristic of PTSD; settings: 16 patients, 20-60 mg of fluoxetine, vs controls
PTSD in 53 civilians = settings: up to 60 mg/day
outpatients with PTSD = settings: 12 week trial, 187 outpatients with PTSD, primarily female victims of sexual assault

Row | Structure (SMILES) | total Treatment Outcome PTSD rating scale score, change from baseline vs placebo [1] | heart rate variability (HRV) [2] | effect on symptom severity vs placebo (PTSD in 53 civilians; by week 2-4) | effectiveness on most measures, including disability improvement, vs placebo (PTSD in 53 civilians; by week 12) | efficacy compared with placebo (outpatients with PTSD)
1 | CNCCC(Oc1ccc(C(F)(F)F)cc1)c1ccccc1 (centres unmarked) [fluoxetine] | statistically significant improvement from baseline | significantly higher HRV than controls | significantly more effect on symptom severity than placebo | more effective on most measures | 
2 | CN[C@H]1CC[C@@H](c2ccc(Cl)c(Cl)c2)c2ccccc21 [sertraline] |  |  |  |  | significant superiority
